Data taken from PMC6905855, “Agonist-specific voltage-dependent gating of lysosomal two-pore Na^+ channels” (eLife, 2019).
Values joined by “and” are separate entries in the source; they are usually repeats but may differ in a detail not shown here. Identical values can stand only once. “Also recorded” adds a separate entry of the source.

Legend:
[1] = test system: T1, TPC2^K204A in HEK293 cells; assay: Whole-cell recordings of ITPC2-K204A; format: cell-based, human; conditions: TPC2^K204A-transfected HEK293 cells
T1 construct: expressed in transfected cells; host or cells: HEK293

[2] = biological target: T2, PI(3,5)P2-insensitive mutant TPC2 channel (K204A) (Homo sapiens, UniProt Q8NHX9, K204A); assay: Whole-endolysosome recordings of ITPC2-K204A; format: biochemical; conditions: for Normalized I-TPC2: TPC2-K204A
T2 construct: expressed in transfected cells; host or cells: HEK293
Excerpt: PI(3,5)P2 reportedly binds to Lys204 and adjacent AA residues to activate TPC2 ([She et al., 2019]). […] Lysosomal PI(3,5)P2 may play a permissive role in TPC activation in intact cells ([Ruas et al., 2015]).
(§1) Data are presented as Mean ± S.E.M (n = 3 patches). […] For panels B, D and F, individual data and Mean ± S.E.M are presented. *, p<0.05; **, p<0.01; ***, p<0.001; N.S., no significance. Figure 3—source data 1. […] Figure 3—figure supplement 1. […] Both individual data points and Mean ± S.E.M are presented (n ≥ 3 patches; also see individual data in Figure 3—figure supplement 1—source data 1). Figure 3—figure supplement 1—source data 1.
All TPC1 and TPC2 mutants were generated with a site-directed mutagenesis kit (Qiagen) using EGFP- human TPC1 and TPC2 as the templates. All constructs were confirmed by DNA sequencing.
(§2) Whole-endolysosome recordings were performed on manually isolated enlarged endolysosomes ([Wang et al., 2012]). In brief, a patch pipette was pressed against a cell and quickly pulled away to slice the cell membrane. Enlarged endolysosomes were released into a dish and identified by monitoring EGFP-TPC1/2 or the mCherry-TPC1/2 fluorescence. After formation of a gigaseal between the patch pipette and the enlarged endolysosome, capacitance transients were compensated. Voltage steps of several hundred mVs with millisecond duration were then applied to break into the vacuolar membrane. The whole-endolysosome configuration was verified by the re-appearance of capacitance transients after break-in.
(§3) Data were collected using an Axopatch 200A patch clamp amplifier, Digidata 1440, and pClamp 10.2 software (Axon Instruments). Whole-endolysosome currents were digitized at 10 kHz and filtered at 2 kHz. All experiments were conducted at room temperature (21–23°C), and all recordings were analyzed with pClamp 10.2, and Origin 8.0 (OriginLab, Northampton, MA). The permeability to cations (relative to PNa) was estimated based on following equations ([Lewis, 1979]) and Erev measurement under bi-ionic conditions:(1) PX/PNa=γNa/γX{[Na^+]Luminal/[X^+]Cytoplasmic}{exp([…])} (2) PCa/PNa=γNa/γCa{[Na^+]Cytoplasmic/[4[Ca^2+]Luminal}{exp(ErevF/RT)}{1+exp(ErevF/RT)} where R, T, F, Erev, and γ are, respectively, the gas constant, absolute temperature, Faraday constant, reversal potential, and activity coefficient. The liquid junction potentials were measured and corrected as described ([Neher, 1992]).

[3] = test system: TPC1/2 DKO HAP1 cells; assay: Whole-endolysosome recordings in TPC1/2 DKO HAP1 cells; format: biochemical, human; conditions: for whole-endolysome ITPC current: dko HAP1, LyNa-VA1.1 (50 µM) co-applied with PI(3,5)P2 (0.3 µM)
Excerpt: TCAs, with a general structure of an aromatic greasy core and an aliphatic chain containing a terminal amine, are lysosomotropic compounds that are known to be highly accumulating in the lysosomes due to proton trapping ([Beckmann et al., 2014]). We next tested the effects of LyNa-VAs in hTPC2-transfected Cos1 and HEK293 cells using whole-endolyosome patch-clamp.
as §1
TPC1 and TPC2 CRISPR KO cells were generated in HAP1 cells using the CRISPR/Cas9 system. The TPC1 sequence (5'cttgcagtacttcagcaccc3', TPC1-sgRNA) and TPC2 sequence (5'ccccagcgtcgggctgctgc3', TPC2-sgRNA) were targeted with pSpCas9 (BB)−2A-puro vector (Addgene). HAP1 cells were co-transfected with TPC1 and TPC2-sgRNA expressing vector in the presence of Lipofectamine 2000 (In vitrogen) and selected with 2 μg/ml puromycin for 48 hr. The remaining cells were trypsinized and seeded into 96-well plate after a limiting dilution. When single cell clones were established, their genomic DNAs were extracted and amplified with following primers: TPC1-fw: 5’atggcccagacatgtgactc3’, TPC1-re: 5’ tgcctgtctccatcctctca3’; TPC2-fw: 5’tgagctgagcatgaggcaag3’, TPC2-re: 5’ aaaggacaagtggccctgag3’. The PCR amplicons were then sequenced to confirm the intended genetic disruption.
as §2
as §3, with “coefficient.” for “coefficient. The liquid junction potentials were measured and corrected as described ([Neher, 1992]).”

[4] = test system: surface-expressing mutant TRPML1 channels (TRPML1^4A); assay: Whole-cell recordings of ITRPML1-4A; format: cell-based; conditions: TRPML1-4A wc; 100µM; individual cells
[5] = test system: T3, TRPML1; assay: Whole-endolysosome recordings of ITRPML1; format: biochemical; conditions: TRPML1-transfected cells
T3 construct: expressed in transfected cells

T2 sequence (Q8NHX9 whole entry K204A): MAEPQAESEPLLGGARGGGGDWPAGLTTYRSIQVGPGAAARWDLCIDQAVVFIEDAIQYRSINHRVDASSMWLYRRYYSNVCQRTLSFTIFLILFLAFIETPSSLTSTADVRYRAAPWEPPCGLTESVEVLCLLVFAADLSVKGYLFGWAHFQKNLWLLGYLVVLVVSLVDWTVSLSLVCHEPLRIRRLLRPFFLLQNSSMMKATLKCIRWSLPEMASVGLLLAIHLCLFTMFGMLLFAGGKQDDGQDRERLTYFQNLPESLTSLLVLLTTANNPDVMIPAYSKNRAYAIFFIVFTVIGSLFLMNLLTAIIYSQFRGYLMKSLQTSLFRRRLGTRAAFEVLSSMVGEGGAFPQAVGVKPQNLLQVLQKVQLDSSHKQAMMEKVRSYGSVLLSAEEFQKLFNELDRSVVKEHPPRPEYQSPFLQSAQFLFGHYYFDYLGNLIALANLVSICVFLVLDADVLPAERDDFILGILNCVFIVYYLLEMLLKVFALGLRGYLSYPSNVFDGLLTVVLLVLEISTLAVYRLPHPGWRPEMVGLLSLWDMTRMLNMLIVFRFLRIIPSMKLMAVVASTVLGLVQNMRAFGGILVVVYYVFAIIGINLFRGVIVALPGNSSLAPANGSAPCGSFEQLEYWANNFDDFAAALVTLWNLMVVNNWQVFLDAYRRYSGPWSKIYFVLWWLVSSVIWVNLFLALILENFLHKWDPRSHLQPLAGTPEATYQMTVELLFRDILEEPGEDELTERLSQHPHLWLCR

**Q.** With CNCCCN1c2ccccc2CCc2ccccc21 [LyNa-VA1.2, Desipramine] as the molecule, how does the “activation of whole-cell ITPC2-K204A (in words)” value [1] read?
**A.** Its value is “activated”.

**Q.** CN(C)CCCN1c2ccccc2CCc2ccc(Cl)cc21 [LyNa-VA1.1, Clomipramine] was tested. Which EC50 ([2]; K204A +PI(3,5)P2 (50 nM), whole-endolysosome, Figure 3C) did it give?
**A.** Its EC50 is 47 ± 5 µM.

**Q.** What about the EC50 ([2]; K204A -PI(3,5)P2, whole-endolysosome, Figure 3C) of the same molecule?
**A.** Its EC50 is 56 ± 3 µM.

**Q.** And the EC50 ([2]; K204A -pip2, MEAN (Fig. 3D))?
**A.** Its EC50 is 59.7 µM.

**Q.** What about the EC50 ([2]; K204A -pip2, individual patches (Fig. 3D)) of the same molecule?
**A.** Its EC50 is 56.4 µM and 68.2 µM and 54.5 µM.

**Q.** And the EC50 ([2]; K204A+pip2 (50 nM), MEAN (Fig. 3D))?
**A.** Its EC50 is 48.7 µM.

**Q.** And the EC50 ([2]; K204A+pip2 (50 nM), individual patches (Fig. 3D))?
**A.** Its EC50 is 45.5 µM and 56.2 µM and 44.4 µM.

**Q.** What about the “Normalized I-TPC2” value ([2]; 1 µM + PI(3,5)P2 50nM, individual patches) of the same molecule?
**A.** The value was 0.01018 and 0.1053 and 0.1347.

**Q.** What about the “Normalized I-TPC2” value ([2]; 1 µM + PI(3,5)P2 50nM, mean) of the same molecule?
**A.** The value was 0.08342.

**Q.** And the “Normalized I-TPC2” value ([2]; 3 µM + PI(3,5)P2 50nM, individual patches)?
**A.** The value was -0.08987 and 0.1073 and 0.2183.

**Q.** And the “Normalized I-TPC2” value ([2]; 3 µM + PI(3,5)P2 50nM, mean)?
**A.** The value was 0.07858.

**Q.** And the “Normalized I-TPC2” value ([2]; 10 µM + PI(3,5)P2 50nM, individual patches)?
**A.** The value was -0.1017 and 0.1767 and 0.2594.

**Q.** And the “Normalized I-TPC2” value ([2]; 10 µM + PI(3,5)P2 50nM, mean)?
**A.** Its value is 0.1115.

**Q.** What about the “Normalized I-TPC2” value ([2]; 10 µM, no PI(3,5)P2, individual patches) of the same molecule?
**A.** Its value is 0.02985 and 0.03877 and 0.00366.

**Q.** And the “Normalized I-TPC2” value ([2]; 10 µM, no PI(3,5)P2, mean)?
**A.** The value was 0.02409.

**Q.** What about the “Normalized I-TPC2” value ([2]; 20 µM, no PI(3,5)P2, individual patches) of the same molecule?
**A.** Its value is 0.03731 and 0.1741 and 0.01903.

**Q.** What about the “Normalized I-TPC2” value ([2]; 20 µM, no PI(3,5)P2, mean) of the same molecule?
**A.** Its value is 0.07682.

**Q.** What about the “Normalized I-TPC2” value ([2]; 30 µM + PI(3,5)P2 50nM, individual patches) of the same molecule?
**A.** Its value is 0.119 and 0.2972 and 0.3327.

**Q.** And the “Normalized I-TPC2” value ([2]; 30 µM + PI(3,5)P2 50nM, mean)?
**A.** Its value is 0.2496.

**Q.** What about the “Normalized I-TPC2” value ([2]; 50 µM, no PI(3,5)P2, individual patches) of the same molecule?
**A.** The value was 0.2736 and 0.4263 and 0.3898.

**Q.** And the “Normalized I-TPC2” value ([2]; 50 µM, no PI(3,5)P2, mean)?
**A.** The value was 0.3632.

**Q.** What about the “Normalized I-TPC2” value ([2]; 100 µM + PI(3,5)P2 50nM, individual patches) of the same molecule?
**A.** The value was 0.8468 and 1 (2×).

**Q.** What about the “Normalized I-TPC2” value ([2]; 100 µM + PI(3,5)P2 50nM, mean) of the same molecule?
**A.** Its value is 0.9489.

**Q.** What about the “Normalized I-TPC2” value ([2]; 100 µM, no PI(3,5)P2, individual patches) of the same molecule?
**A.** Its value is 0.8657 and 1 and 0.7921.

**Q.** What about the “Normalized I-TPC2” value ([2]; 100 µM, no PI(3,5)P2, mean) of the same molecule?
**A.** Its value is 0.8859.

**Q.** What about the “Normalized I-TPC2” value ([2]; 200 µM + PI(3,5)P2 50nM, individual patches) of the same molecule?
**A.** Its value is 1 and 0.5762 and 0.9144.

**Q.** And the “Normalized I-TPC2” value ([2]; 200 µM + PI(3,5)P2 50nM, mean)?
**A.** Its value is 0.8302.

**Q.** And the “Normalized I-TPC2” value ([2]; 200 µM, no PI(3,5)P2, individual patches)?
**A.** The value was 1 (2×) and 0.8492.

**Q.** What about the “Normalized I-TPC2” value ([2]; 200 µM, no PI(3,5)P2, mean) of the same molecule?
**A.** Its value is 0.9497.

**Q.** And the “activation of whole-endolysosome ITPC in TPC1/2 DKO HAP1 cells (in words)” value [3]?
**A.** Its value is “not TPC1/2 DKO”.

**Q.** And the “whole-endolysome ITPC current” value ([3]; individual)?
**A.** Its value is 15.3 pA and 12.5 pA and 24.7 pA and 10.4 pA.

**Q.** And the “whole-endolysome ITPC current” value ([3]; mean)?
**A.** The value was 15.725 pA.

**Q.** And the “current, whole-cell ITRPML1-4A” value [4]?
**A.** Its value is 28.1 pA and 29.7 pA and 114.4 pA and 172.7 pA.

**Q.** What does the source list for Nc1nc2ccc(OC(F)(F)F)cc2s1 [LyNA1, Riluzole]?
**A.** activation of whole-endolysosome ITPC2-K204A (in words) [2]: robustly activated whole-endolysosome ITPC2; activation of whole-endolysosome ITRPML1 (in words) [5]: no current activation; also recorded: lack of the activation effects; activation of whole-cell ITPC2-K204A (in words) [1]: activated; activation of whole-endolysosome ITPC in TPC1/2 DKO HAP1 cells (in words) [3]: not HAP1 cells lacking TPC1 or TPC2; also recorded: not TPC1/2 double KO HAP1 cells
